In US20230091225A1, “Bifunctional chimeric heterocyclic compounds for targeted degradation of androgen receptors and use thereof” (HINOVA PHARMACEUTICALS INC., priority 2019, published 2023):

What follows are compounds tested against T1, androgen receptor (AR) (Homo sapiens, UniProt P10275) (assay: Degradation of androgen receptor (AR) protein in VCaP cells by ELISA). Details: AR degradation, VCaP cells, 16 h, ELISA, Table 3-2; read-out: DC50.
T1 sequence (P10275 1-920): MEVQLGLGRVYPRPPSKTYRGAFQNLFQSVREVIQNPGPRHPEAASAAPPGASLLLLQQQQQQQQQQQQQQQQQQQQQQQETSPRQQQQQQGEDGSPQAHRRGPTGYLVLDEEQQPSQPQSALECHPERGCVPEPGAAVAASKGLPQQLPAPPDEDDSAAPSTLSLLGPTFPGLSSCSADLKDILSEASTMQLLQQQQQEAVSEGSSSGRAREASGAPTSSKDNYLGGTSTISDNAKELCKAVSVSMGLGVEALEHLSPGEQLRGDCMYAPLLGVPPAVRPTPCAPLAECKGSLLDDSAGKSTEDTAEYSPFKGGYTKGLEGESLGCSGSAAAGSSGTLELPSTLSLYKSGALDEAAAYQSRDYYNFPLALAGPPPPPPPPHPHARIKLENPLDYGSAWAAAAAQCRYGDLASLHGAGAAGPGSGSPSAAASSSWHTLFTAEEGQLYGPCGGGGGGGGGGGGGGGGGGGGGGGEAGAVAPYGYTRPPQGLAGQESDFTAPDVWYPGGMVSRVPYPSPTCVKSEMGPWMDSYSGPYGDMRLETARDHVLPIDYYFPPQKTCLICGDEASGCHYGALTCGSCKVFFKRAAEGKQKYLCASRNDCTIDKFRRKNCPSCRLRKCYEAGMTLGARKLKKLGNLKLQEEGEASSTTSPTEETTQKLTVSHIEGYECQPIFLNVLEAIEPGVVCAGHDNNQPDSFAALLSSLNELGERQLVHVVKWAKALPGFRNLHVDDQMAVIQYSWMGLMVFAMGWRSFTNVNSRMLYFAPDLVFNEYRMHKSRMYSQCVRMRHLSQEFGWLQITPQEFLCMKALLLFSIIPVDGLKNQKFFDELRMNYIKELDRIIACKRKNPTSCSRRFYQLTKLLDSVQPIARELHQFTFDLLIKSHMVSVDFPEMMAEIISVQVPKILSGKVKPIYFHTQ
Assay type: cell-based

`N#Cc1ccc(O[C@H]2CC[C@H](NC(=O)c3cnc(N4CCC(CN5CCC6(CC5)CN(c5cc7c(cc5F)C(=O)N(C5CCC(=O)NC5=O)C7=O)C6)CC4)nn3)CC2)cc1Cl` (stereo partly shown) [Compound 158] gave a DC50 of less than 10 nM.

Same assay, conditions: VCaP

`N#Cc1ccc(O[C@H]2CC[C@H](NC(=O)c3cnc(N4CCC(CN5CCC6(CC5)CN(c5cc7c(cc5F)C(=O)N(C5CCC(=O)NC5=O)C7=O)C6)CC4)nn3)CC2)cc1Cl` (stereo partly shown) [Compound 158] gave a Dmax greater than 80%.

Each compound was assayed on LNCaP/AR cells (assay: Inhibition of proliferation of LNCaP/AR prostate cancer cells (CCK-8)). Details: 144 h; proliferation of LNCap/AR cells, 6 days, CCK-8; read-out: IC50.
Assay type: cell-based

`CC(=O)O[C@@H]1C[C@@H](C(=O)N[C@@H](C)c2ccc(-c3scnc3C)cc2)N(C(=O)[C@@H](NC(=O)COCC2CCN(c3ccc4c(c3)CN([C@H]3C(C)(C)[C@H](Oc5ccc(C#N)c(Cl)c5)C3(C)C)C4=O)CC2)C(C)(C)C)C1` [Compound 410] and `Cc1ncsc1-c1ccc([C@H](C)NC(=O)[C@@H]2C[C@@H](O)CN2C(=O)[C@@H](NC(=O)COCCCC#Cc2ccc3c(c2)CN([C@H]2C(C)(C)[C@H](Oc4ccc(C#N)c(Cl)c4)C2(C)C)C3=O)C(C)(C)C)cc1` [Compound 21] cannot be ordered by IC50: less than 100 nM for the first, less than 100 nM for the second.

First: Cc1ncsc1-c1ccc([C@H](C)NC(=O)[C@@H]2C[C@@H](O)CN2C(=O)[C@@H](NC(=O)COCCCCCNc2ccc3c(c2)CN([C@H]2C(C)(C)[C@H](Oc4ccc(C#N)c(Cl)c4)C2(C)C)C3=O)C(C)(C)C)cc1 [Compound 411]
Second: Cc1ncsc1-c1ccc([C@H](C)NC(=O)[C@@H]2C[C@@H](O)CN2C(=O)[C@@H](NC(=O)COCCCCCNc2ccc3c(c2)CN([C@H]2C(C)(C)[C@H](Oc4ccc(C#N)c(Br)c4)C2(C)C)C3=O)C(C)(C)C)cc1 [Compound 433, (2S,4R)-1-((S)-2-(2-((5-((2-((1r,3r)-3-(3-bromo-4-cyanophenoxy)-2,2,4,4-tetramethylcyclobutyl)-1-oxoisoindolin-5-yl)amino)pentyl)oxy)acetylamino)-3,3-dimethylbutyryl)-4-hydroxy-N-((S)-1-(4-(4-methylthiazole5-yl)phenyl)ethyl) pyrrolidinyl-2-carboxamide]
The IC50 of the first is lower: less than 100 nM for the first, greater than 1000 nM for the second.

First: [2H]C1([2H])c2cc(C#CCCCOCC(=O)N[C@H](C(=O)N3C[C@H](O)C[C@H]3C(=O)N[C@@H](C)c3ccc(-c4scnc4C)cc3)C(C)(C)C)ccc2C(=O)N1[C@H]1C(C)(C)[C@H](Oc2ccc(C#N)c(Cl)c2)C1(C)C [Compound 403]
Second: CC1(C)[C@H](Oc2ccc(C#N)c(Cl)c2)C(C)(C)[C@H]1N1Cc2cc(C#CC3CCN(C4CCN(c5ccc6c(c5)C(=O)N(C5CCC(=O)NC5=O)C6=O)CC4)CC3)ccc2C1=O (stereo partly shown) [Compound 52]
The IC50 of the first is lower: less than 100 nM for the first, 100 to 500 nM for the second. The first is the more potent here.

`N#Cc1ccc(O[C@H]2CC[C@H](N3Cc4cc(N5CCC(CN6CCN(c7cc8c(cc7F)C(=O)N(C7CCC(=O)NC7=O)C8)CC6)CC5)ncc4C3=O)CC2)cc1Cl` (stereo partly shown) [Compound 313] showed an IC50 of less than 100 nM.

Same assay, conditions: LNCaP/AR, 144 h

`Cc1ncsc1-c1ccc([C@H](C)NC(=O)[C@@H]2C[C@@H](O)CN2C(=O)[C@@H](NC(=O)COCCOC(C)C#Cc2ccc3c(c2)CN([C@H]2C(C)(C)[C@H](Oc4ccc(C#N)c(Cl)c4)C2(C)C)C3=O)C(C)(C)C)cc1` (stereo partly shown) [Compound 37] was tested, and the IC50 was less than 100 nM.

Same assay, conditions: proliferation of LNCap/AR cells, 6 days, CCK-8; read-out: IC50

Compared with “(2S,4R)-1-((S)-2-(3-((4-(2-((1r,3r)-3-(3-chloro-4-cyanophenoxy)-2,2,4,4-tetramethylcyclobutyl)-1-oxoisoindolin-5-yl)3-butynoxy)propylamino)-3,3-dimethylbutanol)-4-hydroxy-N-(S)-1-(4-(4-methylthiazole)phenyl)ethyl) formamide [Compound 34]”, “(2R,4R)-1-((S)-2-(2-((1-(3-(2-((1r,3r)-3-(3-chloro-4-cyanophenoxy)-2,2,4,4-tetramethylcyclobutyl)-1-oxoisoindolin-5-yl)prop-2-yn-1-yl)azetidine-3-yl)oxy) acetylamino)-3,3-dimethylbutyryl)-4-hydroxy-N-((S)-1-(4-(4-(4-methylthiazol-5-yl)phenyl)ethyl)pyrrolidine-2-carboxamide [Compound 40]” is higher in IC50: less than 100 nM for the first, 100 to 500 nM for the second.

First: CN1C(=O)CCC(N2Cc3cc(F)c(N4CCN(CC5CCN(c6ccc7c(n6)CN(C6CCC(Oc8ccc(C#N)c(Cl)c8)CC6)C7=O)CC5)CC4)cc3C2=O)C1=O (stereo not shown) [Compound 307, 2-chloro-4-((1r,4r)-4-(2-(4-((4-(6-fluoro-2-(1-methyl-2,6-dioxopiperidin-3-yl)-3-oxoisoindolin-5-yl)piperazin-1-yl)methyl)piperidin-1-yl)-5-oxo-5H-pyrrolo[3,4-b]pyridin-6(7H)-yl)cyclohexyl)oxy)benzonitrile]
Second: Cc1ncsc1-c1ccc([C@H](C)NC(=O)[C@@H]2C[C@@H](O)CN2C(=O)[C@@H](NC(=O)C2(C(=O)NCCCC#Cc3ccc4c(c3)CN(C3C(C)(C)C(Oc5ccc(C#N)c(Cl)c5)C3(C)C)C4=O)CC2)C(C)(C)C)cc1 (stereo partly shown) [Compound 25]
The IC50 of the first is higher: 500 to 1000 nM for the first, less than 100 nM for the second.

“(2S,4R)-1-((S)-2-(2-((2-((5-(1r,3r)-3-(3-chloro-4-cyanophenoxy)-2,2,4,4-tetramethylcyclobutyl)-1-oxoisoindolin-5-yl)oxy)pentyl)oxy)acetamide)-3,3-dimethylbutyryl)-4-hydroxy-N-((S)-1-(4-(4-methylthiazol-5-yl)phenyl)ethyl) pyrrolidine-2-carboxamide [Compound 406]” and `Cc1ncsc1-c1ccc([C@H](C)NC(=O)[C@@H]2C[C@@H](O)CN2C(=O)[C@@H](NC(=O)COCCCCn2cc(-c3ccc4c(c3)CN([C@H]3C(C)(C)[C@H](Oc5ccc(C#N)c(Cl)c5)C3(C)C)C4=O)nn2)C(C)(C)C)cc1` [Compound 30, (2s,4r)-1-((s)-2-(2-(4-(4-(2-((1r,3r)-3-(3-chloro-4-cyanophenoxy)-2,2,4,4-tetramethylcyclobutyl)-1-oxoisobutanol-5-yl)-1H-1,2,3-triazol-1-yl)butoxy)acetamido)-3,3-dimethylbutyryl)-4-hydroxy-N-((S)-1-(4-(4-methylthiazol-5-yl)phenyl)ethyl)pyrrolidine-2-carboxamide] fall in the same range of IC50: 100 to 500 nM for the first, 100 to 500 nM for the second.

Each compound was assayed against T1, androgen receptor (AR) (assay: Degradation of androgen receptor (AR) protein in VCaP cells by Western blot). Details: percentage of degraded AR at 100 nM, VCaP cells, 16 h.
Assay type: cell-based
Method in brief: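 VCaP cells (5×10^5/well) were seeded overnight, then treated in duplicate for 16 h with compound in 0.1% DMSO final. Lysates (30 μg protein) were immunoblotted for AR (D6F11) with β-actin as loading control, detected by ECL chemiluminescence.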

`N#Cc1ccc(O[C@H]2CC[C@H](NC(=O)c3cnc(N4CCC(CN5CCC6(CC5)CN(c5cc7c(cc5F)C(=O)N(C5CCC(=O)NC5=O)C7=O)C6)CC4)nn3)CC2)cc1Cl` (stereo partly shown) [Compound 158] and `N#Cc1ccc(O[C@H]2CC[C@H](NC(=O)c3ccc(N4CCC(CN5CCC6(CC5)CN(c5cc7c(cc5F)C(=O)N(C5CCC(=O)NC5=O)C7=O)C6)CC4)nn3)CC2)cc1Cl` (stereo partly shown) [Compound 231, N-((1r,4r)-4-(3-chloro-4-cyanophenoxy)cyclohexyl)-6-(4-((2-(2-(2-,2,6-dioxopiperidin-3-yl)-6-fluoro-1,3-dioxoisoindolin-5-yl)-2,7-diazaspiro[3.5]nonan-7-yl)methyl)piperidin-1-yl)pyridazine-3-carboxamide] cannot be ordered by inhibition at 0.1 µM: greater than 80% for the first, greater than 80% for the second.

`N#Cc1ccc(O[C@H]2CC[C@H](NC(=O)c3ccc(N4CCC5(CCN(CC6CCN(c7cc8c(cc7F)C(=O)N(C7CCC(=O)NC7=O)C8=O)CC6)C5)C4)nn3)CC2)cc1Cl` (stereo partly shown) [Compound 162, N-((1r,4r)-4-(3-chloro-4-cyanophenoxy)cyclohexyl)-6-(7-((1-(2-(2,6-dioxopiperidin-3-yl)-6-fluoro-1,3-dioxoisoindolin-5-yl)piperidine-4-yl)methyl)-2,7-diazaspiro[4.4]nonan-2-yl)pyridazine-3-formamide] and `N#Cc1ccc(O[C@H]2CC[C@H](NC(=O)c3cnc(N4CCC(N5CCC6(CCN(c7cc8c(cc7F)C(=O)N(C7CCC(=O)NC7=O)C8=O)C6)C5)CC4)cn3)CC2)cc1Cl` (stereo partly shown) [Compound 165, N-((1r,4r)-4-(3-chloro-4-cyanophenoxy)cyclohexyl)-5-(4-(7-(2-(2,6-dioxopiperidin-3-yl)-6-fluoro-1,3-dioxoisoindolin-5-yl)-2,7-diazaspiro[4.4]nonan-2-yl)piperidin-1-yl)pyrazine-2-carboxamide] cannot be ordered by inhibition at 0.1 µM: greater than 80% for the first, greater than 80% for the second.

`N#Cc1ccc(O[C@H]2CC[C@H](NC(=O)c3ccc(N4CCC(CN5CC6CN(c7ccc8c(c7)C(=O)N(C7CCC(=O)NC7=O)C8=O)CC6C5)CC4)nn3)CC2)cc1Cl` (stereo partly shown) [Compound 252, N-((1r,4r)-4-(3-chloro-4-cyanophenoxy)cyclohexyl)-6-(4-((5-(2-(2,6-dioxopiperidin-3-yl)-1,3-dioxoisoindolin-5-yl)Hexahydropyrrolo[3,4-c]pyrrol-2(11H)-yl)methyl)piperidin-1-yl)pyridazine-3-formamide] was tested, and the inhibition at 0.1 µM was 25 to 49%.

With `N#Cc1ccc(O[C@H]2CC[C@@H](NC(=O)c3cnc(N4CCN([C@@H]5C[C@@H]6CN(c7cc8c(cc7F)C(=O)N(C7CCC(=O)NC7=O)C8=O)C[C@@H]6C5)CC4)cn3)CC2)cc1Cl` (stereo partly drawn) [Compound 295, N-((1s,4s)-4-(3-chloro-4-cyanophenoxy)cyclohexyl)-5-(4-((3aR,5R,6aS)-2-(2-(2,6-dioxopiperidin-3-yl)-6-fluoro-1,3-dioxoisoindolin-5-yl)octahydrocyclopenta[c]pyrrol-5-yl)piperazin-1-yl)pyrazine-2-carboxamide] the “% degradation” value was “C (49%-25%)”.
